The nature of data set [1]: Odor and H2S generation (H2S test strip) of cystine / cystine derivative samples. The format is physicochemical. To be noted: summary of the Examples; monitored as H2S. Here is the method:
Evaluation of Cystine Crystallization and Odor in the Presence of Cystine Derivatives Samples for cystine crystallization evaluation were prepared by dissolving cystine (10 mg) alone or in combination with NDAC (N,N′-diacetyl-L-cystine) (55 mg), NACys (N-acetyl-L-cysteine) (28 mg) or L-cystine diethyl ester dihydrochloride (DEC) (62 mg) in 0.775M NaOH (1 ml) or Epilife™ cell culture media (60 uM calcium chloride, HEPES/bicarbonate buffered; Thermofisher Scientific) (1 ml) and the pH adjusted to 7.0 by adding HCl (12.1M). A hydrogen sulfide (H2S) test strip (Sigma) was placed above the sample solution and the samples sealed. Visual appearance, odor and H2S generation (unchanged test strip white color=no H2S generated; changed test strip brown/black color=H2S generated) were monitored up to 4 months and recorded.

The conditions of data set [2]: at 25° C.; cited from earlier work.
For data set [3] the following is noted: according to Zhu, et al.; cited from earlier work.

Consider `CCOC(=O)[C@@H](N)CSSC[C@H](N)C(=O)OCC` [DEC, L-Cystine diethyl ester], for which the “odor of the cystine derivative, in words” value in data set [1] is “unpleasant sulfurous odor”.

With `N[C@@H](CSSC[C@H](N)C(=O)O)C(=O)O` [cystine, L-Cystine], in data set [2], the “solubility of cystine in water” value was 112 µg/mL.

As to `CC(=O)N[C@@H](CS)C(=O)O` [NACys, N-Acetyl-L-Cysteine], the “odor of the cystine derivative, in words” value in data set [1] is “upleasant sulfurous odor”.

Regarding `CC(=O)N[C@@H](CSSC[C@H](NC(C)=O)C(=O)O)C(=O)O` [NDAC, N,N′-Diacetyl-L-Cystine], the “inhibitor of cystine crystal growth” value in data set [3] was “not effective”.

The record behind these values is patent US20230157939A1, “PERSONAL CARE COMPOSITIONS WITH ENHANCED SOLUBILITY ACTIVES” (Conopco, Inc., d/b/a UNILEVER, priority 2020, published 2023).
